Experimental data published in publication PMC7694037, “Quinolizidine-Derived Lucanthone and Amitriptyline Analogues Endowed with Potent Antileishmanial Activity” (Pharmaceuticals, 2020).
Where two headings read alike, the source gives them in different places.

How the values were obtained:
[1] = tested on: choline uptake into rat brain synaptosomes; design: method as in PMID 6124978; details: 1 µM concentration; cited from earlier work
[2] = Cytotoxicity against Vero-76 cells (crystal violet staining); format: cell-based, Cercopithecus Aethiops; details: Cercopithecus aethiops (African green monkey)
Experimental: (§1) The cytotoxicity of lucanthone was also tested for comparison. […] The relevant selectivity index (SI)—a parameter that quantifies the preferential antileishmanial activity of a compound in relation to mammalian cell toxicity (CC50/IC50)—is tabulated in Table 2. […] The replacement of the 4-methyl substituent with an amino group in compound 14, while preserving good antileishmanial activity, led to a further substantial decrease of cytotoxicity, with a resultantly safer profile (SI = 16.2 and 16.9 for the two Leishmania species).
(§2) Vero-76 cells (ATCC CRL 1587 Cercopithecus Aethiops) were seeded at an initial density of 4 × 10^5 cells/mL in 24-well plates, in culture medium (Dulbecco’s modified eagle’s medium (D-MEM) with L-glutamine, supplemented with fetal bovine serum (FBS), 0.025 g/L kanamycin). Cell cultures were then incubated at 37 °C in a humidified, 5% CO2 atmosphere in the absence or presence of serial dilutions of test compounds. Cell viability was determined after 48–96 h at 37 °C by the Crystal violet staining method. The results are expressed as CC50, which is the concentration of compound necessary to inhibit cell growth by 50%. Each CC50 value is the mean and standard deviation of at least three separate experiments performed in duplicate.

Vero-76 cells = assay: as above; format: cell-based, Cercopithecus Aethiops; details: for S.I. L. tropica: CC50 Vero-76 / IC50 L. tropica promastigotes
Experimental: as §1, §2

[3] = tested on: intramacrophagic amastigotes of L. infantum; assay: Intracellular amastigote susceptibility assay in PMA-differentiated THP-1 macrophages; format: cell-based; details: Leishmania infantum; intramacrophagic amastigotes in THP-1 macrophages, 72 h; mean ± SD; read-out: L. infantum Amastigotes IC50
Experimental: Finally, for a better idea of their real value as antileishmanial agents, compounds 14 and 17, displaying the most promising activity against promastigote stage and the highest SI values, together with lucanthone and the corresponding quinolizidine analog 1, were tested against the intramacrophagic amastigote stage of L. infantum.
THP-1 cells (human acute monocytic leukemia) were maintained in RPMI supplemented with 10% FBS (EuroClone), 50 µM 2-mercaptoethanol, 20 mM Hepes and 2 mM glutamine, at 37 °C in 5% CO2. For Leishmania infections, THP-1 cells were plated at 5 × 10^5 cells/mL in 16-chamber Lab-Tek culture slides (Nunc, Milan, Italy) and treated with 0.1 µM phorbol myristate acetate (PMA, Sigma) for 48 h to achieve differentiation into macrophages. Cells were washed and infected with metacyclic L. infantum promastigotes at a macrophage/promastigote ratio of 1/10 for 24 h. Cell monolayers were then washed and incubated in the presence of test compounds for 72 h. Slides were fixed with methanol and stained with Giemsa. The percentages of infected macrophages among treated and non-treated cells were determined by light microscopy.

[4] = Cytotoxicity against PMA-differentiated THP-1 cells (MTT); format: cell-based, human; details: human
Experimental: (§3) The cytotoxic concentration (CC50) against THP-1 differentiated into macrophages (Table 3), used for testing the activity against the amastigote stage, is also reported.
(§4) THP-1 cells were plated at 5 × 10^5 cells/mL in 96 wells flat bottom microplates and treated with 0.1 µM PMA for 48 h to achieve differentiation into macrophages. Cells were then treated with serial dilutions of test compounds and cell proliferation evaluated using the MTT assay described for promastigotes.

PMA-differentiated THP-1 = assay: as above; format: cell-based, human; details: CC50 THP-1 / IC50 L. infantum amastigotes
Experimental: as §3, §4

Staphylococcus aureus = tested on: Staphylococcus aureus; design: method as in PMID 3653383; details: cited from earlier work
Bacillus subtilis = tested on: Bacillus subtilis; design: method as in PMID 3653383; details: cited from earlier work
[5] = tested on: Mycobacterium tuberculosis; design: method as in PMID 3653383; details: cited from earlier work
[6] = i.p., doses up to 200–350 mg/kg, once a day for five consecutive days, mice inoculated with leukemia P388 cells; cited from earlier work
[7] = tested on: Leishmania tropica promastigotes; assay: Antileishmanial activity against L. tropica promastigotes (MTT assay); details: for IC50: Leishmania tropica, 72 h, read-out: IC50 L. tropica, promastigotes, MTT, 72 h, IC50 ± SD; for Ratio IC50 Miltef./IC50 Compd. (L. tropica): ratio between IC50 of miltefosine and that of each compound, L. tropica promastigotes
Experimental: (§5) Promastigote stage of L. infantum strain MHOM/TN/80/IPT1 (kindly provided by Dr. M. Gramiccia, ISS, Roma) and L. tropica (MHOM/SY/2012/ISS3130) were cultured in RPMI 1640 medium (EuroClone) supplemented with 10% heat-inactivated fetal calf serum (EuroClone, Milan Italy), 20 mM Hepes and 2 mM L-glutamine at 24 °C. […] Compounds were dissolved in DMSO and then diluted with medium to achieve the required concentrations. Drugs were placed in 96 wells round-bottom microplates and seven serial dilutions made. Miltefosine was used as reference anti-Leishmania drug. Parasites were diluted in complete medium to 5 × 10^6 parasites/mL and 100 μL of the suspension was seeded into the plates, incubated at 24 °C for 72 h and then 20 µL of MTT solution (5 mg/mL) was added into each well for 3 h. The plates were then centrifuged, the supernatants were discarded and the resulting pellets were dissolved in 100 µL of lysing buffer consisting of 20% (w/v) of a solution of SDS (Sigma), 40% DMF (Merck, Milan Italy) in H2O. The absorbance was measured spectrophotometrically at a test wavelength of 550 nm and a reference wavelength of 650 nm.

[8] = tested on: L. infantum promastigotes; assay: Antileishmanial activity against L. infantum promastigotes (MTT assay); details: for IC50: Leishmania infantum, 72 h, read-out: IC50 L. infantum; for Ratio IC50 Miltef./IC50 Compd. (L. infantum): ratio between IC50 of miltefosine and that of each compound, L. infantum promastigotes
Experimental: as §5

SMILES | mortality [6] | IC50 [7] | Ratio IC50 Miltef./IC50 Compd. (L. tropica) [7] | IC50 [8] | Ratio IC50 Miltef./IC50 Compd. (L. infantum) [8] | other results
CN(C)CCC=C1c2ccccc2CCc2ccccc21 [Amitriptyline] |  |  |  |  |  | inhibition of choline uptake into rat brain synaptosomes [1]: completely ineffective
Cc1ccc(NC[C@@H]2CCCN3CCCC[C@H]23)c2c(=O)c3ccccc3sc12 [Compound 1] | no mortality | 3.36 ± 1.53 µM | 12.9 | 3.87 ± 1.53 µM | 8.1 | CC50 [2]: 23.5 ± 1.8 µM; S.I. L. tropica (Vero-76 cells): 7.0; IC50 [3]: 3.49 ± 0.18 µM; CC50 [4]: 28 ± 8 µM; SI (THP-1) (PMA-differentiated THP-1): 8.0; MIC Staphylococcus aureus (Staphylococcus aureus): 2.5 µg/mL; MIC Staphylococcus aureus (Staphylococcus aureus; converted from µg/mL): 6.63 µM; MIC Bacillus subtilis (Bacillus subtilis): 2.5 µg/mL; MIC Bacillus subtilis (Bacillus subtilis; converted from µg/mL): 6.63 µM; MIC Mycobacterium tuberculosis [5]: 1.25 µg/mL; MIC Mycobacterium tuberculosis ([5]; converted from µg/mL): 3.32 µM
Cc1ccc(NCCC2CCCN3CCCCC23)c2c(=O)c3ccccc3sc12 (stereo not shown) [Compound 2] |  | 6.27 ± 2.75 µM | 6.9 | 10.6 ± 3.78 µM | 2.95 | CC50 [2]: 22.9 ± 2.3 µM; S.I. L. infantum (Vero-76 cells; CC50 Vero-76 / IC50 L. infantum promastigotes): 2.2; S.I. L. tropica (Vero-76 cells): 3.7
Cc1ccc(NCCCC2CCCN3CCCCC23)c2c(=O)c3ccccc3sc12 (stereo not shown) [Compound 3] |  | 8.89 ± 3.02 µM | 4.87 | 17.2 ± 1.31 µM | 1.8 | 
Cc1ccc(NC[C@@H]2CCC[N+]3(C)CCCC[C@H]23)c2c(=O)c3ccccc3sc12.[I-] (stereo partly drawn) [Compound 4, (1S,9aR)-5-methyl-1-{[(4-methyl-9-oxo-9H-thioxanthen-1-yl)amino]methyl}-decahydroquinolizin-5-ium iodide] |  | 17.8 ± 5.61 µM | 2.4 | 13 ± 2.8 µM | 2.4 | melting point: 147 to 150 °C
COc1ccc2sc3c(C)ccc(NCC4CCCN5CCCCC45)c3c(=O)c2c1 (stereo not shown) [Compound 5] | no mortality | 8.16 ± 5.23 µM | 5.3 | 8.99 ± 3.86 µM | 3.5 | 
COc1ccc2sc3c(C)ccc(NCCCC4CCCN5CCCCC45)c3c(=O)c2c1 (stereo not shown) [Compound 7] |  | 12 ± 5.24 µM | 3.6 | 19.7 ± 5.79 µM | 1.6 | 
O=c1c2ccccc2sc2c([N+](=O)[O-])ccc(NCC3CCCN4CCCCC34)c12 (stereo not shown) [Compound 8] |  | 19.2 ± 9.33 µM | 2.25 | 38.7 ± 7.67 µM | 0.8 | 
O=c1c2ccccc2sc2c([N+](=O)[O-])ccc(NCCC3CCCN4CCCCC34)c12 (stereo not shown) [Compound 9] | no mortality | 4.64 ± 1.12 µM | 9.3 | 9.39 ± 4.34 µM | 3.3 | 
O=c1c2ccccc2sc2c([N+](=O)[O-])ccc(NCCCC3CCCN4CCCCC34)c12 (stereo not shown) [Compound 10] |  | 11.1 ± 3.3 µM | 3.9 | 22.3 ± 3.3 µM | 1.4 | 
